Test results as given in ChEMBL document CHEMBL5055629, “Design and synthesis of Grp94 selective inhibitors based on Phe199 induced fit mechanism and their anti-inflammatory effects” (Eur J Med Chem, 2021).
Converted amounts (≈) assume the structure as drawn. One block for each compound: values may come before it.

Tests used:
Endoplasmin [1] = target: T1, Endoplasmin (Canis lupus familiaris, UniProt P41148); assay: Inhibition of GST-tagged dog GRP94 (69 to 337 residues) expressed in Escherichia coli BL21 (DE3) measured after 4 hrs by fluorescent polarization assay
T1 sequence (P41148 whole entry, the tested form may be a part): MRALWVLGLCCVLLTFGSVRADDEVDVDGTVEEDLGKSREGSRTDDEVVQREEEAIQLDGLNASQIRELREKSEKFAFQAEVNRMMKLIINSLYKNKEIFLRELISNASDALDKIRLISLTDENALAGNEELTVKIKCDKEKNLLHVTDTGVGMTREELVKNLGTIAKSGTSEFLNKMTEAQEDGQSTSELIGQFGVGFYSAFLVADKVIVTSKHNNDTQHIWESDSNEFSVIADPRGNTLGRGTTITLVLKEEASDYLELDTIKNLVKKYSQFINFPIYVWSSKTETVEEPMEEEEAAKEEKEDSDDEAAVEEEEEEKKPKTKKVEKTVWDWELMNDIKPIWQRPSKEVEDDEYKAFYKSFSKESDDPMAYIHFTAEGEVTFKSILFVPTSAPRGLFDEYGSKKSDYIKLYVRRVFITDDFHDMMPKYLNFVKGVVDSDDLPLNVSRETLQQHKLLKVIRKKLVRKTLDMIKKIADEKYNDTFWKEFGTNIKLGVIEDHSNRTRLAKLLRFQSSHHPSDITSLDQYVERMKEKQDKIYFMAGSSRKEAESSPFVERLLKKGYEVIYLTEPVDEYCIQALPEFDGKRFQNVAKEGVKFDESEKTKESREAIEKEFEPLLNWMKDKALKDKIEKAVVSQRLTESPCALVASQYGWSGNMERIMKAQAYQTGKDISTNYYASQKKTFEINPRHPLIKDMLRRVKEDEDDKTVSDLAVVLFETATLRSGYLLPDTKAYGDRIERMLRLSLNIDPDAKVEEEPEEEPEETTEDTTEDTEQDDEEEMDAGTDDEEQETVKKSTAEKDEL

[2] = target: T2, Heat shock protein HSP 90-alpha (Homo sapiens, UniProt P07900); assay: Binding affinity to Hsp90alpha (unknown origin) by fluorescent polarization assay
Endoplasmin [3] = target: Endoplasmin (Homo sapiens, UniProt P14625); assay: Binding affinity to Grp94 (unknown origin) by fluorescent polarization assay
Chain of Endoplasmin (Homo sapiens, UniProt P14625) (P14625 whole entry): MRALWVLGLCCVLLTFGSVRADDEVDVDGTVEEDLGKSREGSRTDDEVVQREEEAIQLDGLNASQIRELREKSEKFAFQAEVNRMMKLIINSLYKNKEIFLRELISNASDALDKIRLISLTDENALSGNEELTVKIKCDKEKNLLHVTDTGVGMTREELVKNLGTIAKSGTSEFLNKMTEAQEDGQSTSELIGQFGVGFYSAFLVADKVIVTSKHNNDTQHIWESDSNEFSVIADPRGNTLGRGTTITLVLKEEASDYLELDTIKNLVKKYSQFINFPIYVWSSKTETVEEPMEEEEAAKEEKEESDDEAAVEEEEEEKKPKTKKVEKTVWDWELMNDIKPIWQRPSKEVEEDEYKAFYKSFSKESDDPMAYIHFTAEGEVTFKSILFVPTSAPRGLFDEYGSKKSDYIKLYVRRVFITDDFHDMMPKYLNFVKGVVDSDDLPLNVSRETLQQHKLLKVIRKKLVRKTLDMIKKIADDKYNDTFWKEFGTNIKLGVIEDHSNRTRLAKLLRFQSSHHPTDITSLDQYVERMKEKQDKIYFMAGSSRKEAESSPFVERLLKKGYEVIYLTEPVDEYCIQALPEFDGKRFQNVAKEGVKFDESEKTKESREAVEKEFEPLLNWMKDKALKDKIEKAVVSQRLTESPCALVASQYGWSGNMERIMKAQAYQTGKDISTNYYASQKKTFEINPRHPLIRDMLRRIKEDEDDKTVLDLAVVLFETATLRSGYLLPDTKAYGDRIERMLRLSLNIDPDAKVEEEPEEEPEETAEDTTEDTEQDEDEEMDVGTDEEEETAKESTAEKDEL

[4] = Apparent volume of distribution in Sprague-Dawley rat at 10 mg/kg, iv measured after 24 hrs by LC-MS/MS analysis; format: ADME, organism-based; details: in vivo
[5] = Cmax in Sprague-Dawley rat at 40 mg/kg, po measured after 24 hrs by LC-MS/MS analysis; format: ADME, organism-based; parameters: time 24 hrs, dose 40 mg/kg, route po; details: in vivo
[6] = Tmax in Sprague-Dawley rat at 40 mg/kg, po measured after 24 hrs by LC-MS/MS analysis; format: ADME, organism-based; details: in vivo
Mus musculus [7] = assay: Anti-ulcerative colitis activity against DSS-induced Ulcerative colitis C57BL/6 mouse model assessed as disease activity index at 30 mg/kg, ip measured for 8 days (reference value: 8.37+/-0.3); format: functional; details: time 8 day
[8] = Metabolic stability in mouse microsomes assessed as half life in presence of NADPH at 10 uM measured after 120 mins by LC-MS/MS analysis; format: ADME, Microsome
[9] = target: T2, Heat shock protein HSP 90-alpha; assay: Binding affinity to His-tagged human N-terminal HSP90alpha (1 to 236 residues) expressed in Escherichia coli BL21 (DE3) assessed as dissociation rate constant at 1.1 to 30 uM measured by BLI assay
[10] = AUC (0 to infinity) in Sprague-Dawley rat at 10 mg/kg, iv measured after 24 hrs by LC-MS/MS analysis; format: ADME, organism-based; parameters: dose 10 mg/kg, time 24 hrs, route iv; details: in vivo
[11] = Aqueous solubility of compound; format: physicochemical; details: buffer
[12] = Oral bioavailability in Sprague-Dawley rat at 40 mg/kg measured after 24 hrs by LC-MS/MS analysis; format: ADME, organism-based; details: in vivo
Endoplasmin [13] = target: T1, Endoplasmin; assay: Binding affinity to GST-tagged dog GRP94 (69 to 337 residues) expressed in Escherichia coli BL21 (DE3) assessed as dissociation rate constant at 0.37 to 10 uM measured by BLI assay
[14] = Clearance in Sprague-Dawley rat at 40 mg/kg, po measured after 24 hrs by LC-MS/MS analysis; format: ADME, organism-based; details: in vivo
Mus musculus [15] = assay: Anti-ulcerative colitis activity against DSS-induced Ulcerative colitis C57BL/6 mouse model assessed as disease activity index at 10 mg/kg, ip measured for 8 days (reference value: 8.37+/-0.3); format: functional; details: time 8 day
[16] = Lipophilicity, logD of compound at pH 7.4; format: physicochemical; details: buffer
[17] = Cmax in Sprague-Dawley rat at 10 mg/kg, iv measured after 24 hrs by LC-MS/MS analysis; format: ADME, organism-based; parameters: dose 10 mg/kg, time 24 hrs, route iv; details: in vivo
[18] = Permeability of compound at pH 7.4; format: ADME; details: not told, read-out: permeability
Mus musculus [19] = assay: Toxicity in DSS-induced Ulcerative colitis C57BL/6 mouse model assessed as effect on liver weight index at 10 to 50 mg/kg, ip measured after 8 days; details: in vivo, 192 h
Mus musculus [20] = assay: Toxicity in DSS-induced Ulcerative colitis C57BL/6 mouse model assessed as loss of body weight at 10 to 50 mg/kg, ip measured for 9 days; format: organism-based; details: in vivo, 216 h, dose 10-50 mg/kg, time 9 day
[21] = Clearance in Sprague-Dawley rat at 10 mg/kg, iv measured after 24 hrs by LC-MS/MS analysis; format: ADME, organism-based; details: in vivo
[22] = Tmax in Sprague-Dawley rat at 10 mg/kg, iv measured after 24 hrs by LC-MS/MS analysis; format: ADME, organism-based; details: in vivo
Mus musculus [23] = assay: Anti-ulcerative colitis activity against DSS-induced Ulcerative colitis C57BL/6 mouse model assessed as disease activity index at 50 mg/kg, ip measured for 8 days (reference value: 8.37+/-0.3); format: functional; details: time 8 day
[24] = Half life in Sprague-Dawley rat at 40 mg/kg, po measured after 24 hrs by LC-MS/MS analysis; format: ADME, organism-based; details: in vivo
[25] = Metabolic stability in human microsomes assessed as half life in presence of NADPH at 10 uM measured after 120 mins by LC-MS/MS analysis; format: ADME, Microsome
[26] = target: T2, Heat shock protein HSP 90-alpha; details: dose 1.1-30 µM
Description: Binding affinity to His-tagged human N-terminal HSP90alpha (1 to 236 residues) expressed in Escherichia coli BL21 (DE3) assessed as association constant at 1.1 to 30 uM measured by BLI assay

[27] = Metabolic stability in human microsomes assessed as clearance in presence of NADPH at 10 uM measured after 120 mins by LC-MS/MS analysis; format: ADME, Microsome; details: 2 h
[28] = AUC (0 to infinity) in Sprague-Dawley rat at 40 mg/kg, po measured after 24 hrs by LC-MS/MS analysis; format: ADME, organism-based; parameters: dose 40 mg/kg, time 24 hrs, route po; details: in vivo
[29] = target: Endoplasmin (Canis lupus familiaris) (UniProt P41148); details: dose 0.37-10 µM
Chain of Endoplasmin (Canis lupus familiaris) (P41148 whole entry): as the sequence (P41148 whole entry, the tested form may be a part) above
Description: Binding affinity to GST-tagged dog GRP94 (69 to 337 residues) expressed in Escherichia coli BL21 (DE3) assessed as association constant at 0.37 to 10 uM measured by BLI assay

[30] = Metabolic stability in mouse microsomes assessed as clearance in presence of NADPH at 10 uM measured after 120 mins by LC-MS/MS analysis; format: ADME, Microsome; details: 2 h
[31] = Apparent volume of distribution in Sprague-Dawley rat at 40 mg/kg, po measured after 24 hrs by LC-MS/MS analysis; format: ADME, organism-based; details: in vivo
[32] = Half life in Sprague-Dawley rat at 10 mg/kg, iv measured after 24 hrs by LC-MS/MS analysis; format: ADME, organism-based; details: in vivo

SMILES: CCCCC#Cc1ccc(NCC2CCN(C(C)=O)CC2)c(C(N)=O)c1
- IC50 (Endoplasmin [1]): 4780 nM

SMILES: CCCCC#Cc1ccc(NCCCO)c(C(N)=O)c1
- IC50 (Endoplasmin [1]): 2770 nM

SMILES: CCOc1ccccc1Cn1ccnc1CCc1c(Cl)c(O)cc(O)c1C(=O)OC
- Kd [2]: 8200 nM

SMILES: CCCCC#Cc1ccc(NCCOC)c(C(N)=O)c1
- IC50 (Endoplasmin [1]): 10900 nM

SMILES: CCCCC#Cc1ccc(NC2CCN(C(=O)CC3CC3)CC2)c(C(N)=O)c1
- IC50 (Endoplasmin [1]): 797 nM

SMILES: CCCCC#Cc1ccc(NCCCOCC)c(C(N)=O)c1
- IC50 (Endoplasmin [1]): 3310 nM

SMILES: CC(C)NCCCn1c(Sc2cc(Cl)cc(Cl)c2)nc2c(N)ncnc21
- Kd (Endoplasmin [3]): 220 nM
- Kd [2]: > 250000 nM

SMILES: CCCCC#Cc1ccc(NCC2CCNCC2)c(C(N)=O)c1
- IC50 (Endoplasmin [1]): 16600 nM

SMILES: CN(C)CC#Cc1ccc(N[C@H]2CC[C@H](O)CC2)c(C(N)=O)c1
- IC50 (Endoplasmin [1]): 62600 nM

SMILES: CCCCC#Cc1ccc(N[C@H]2CC[C@H](O)CC2)c(C(N)=O)c1
- Vz [4]: 1.47 L/kg
- Cmax [5]: 600 ng/mL
- Tmax [6]: 0.38 h
- Activity_index (Mus musculus [7]): 2.3
- half-life at 10 µM [8]: 1.8 h
- IC50 (Endoplasmin [1]): 60 nM
- koff [9]: 1.14 10^-2/s
- AUC [10]: 1.51 µg/mL/h
- solubility [11]: 11 µg/mL (≈ 35 µM)
- bioavailability [12]: 15.7%
- koff (Endoplasmin [13]): 2.84 10^-2/s
- CL [14]: 72.8 mL/min/kg
- Activity_index (Mus musculus [15]): 3.04
- logD [16]: 3.69
- Cmax [17]: 2410 ng/mL
- Papp [18]: 97.9 ×10⁻⁶ cm/s
- Activity (Mus musculus [19]): Non-Toxic
- Activity (Mus musculus [20]): Non-Toxic
- CL [21]: 111 mL/min/kg
- Tmax [22]: 3 min
- Activity_index (Mus musculus [23]): 1.76
- t1/2 [24]: 4.69 h
- half-life at 10 µM [25]: 5.78 h
- Ka [26]: 1.22 10^5/M/s
- CL [27]: 12.8 µL/min/mg
- AUC [28]: 0.95 µg/mL/h
- Ka [29]: 2.56 10^5/M/s
- CL [30]: 11 µL/min/mg
- Vz [31]: 2.81 L/kg
- t1/2 [32]: 15.25 h

SMILES: CCN(CC)CC#Cc1ccc(N[C@H]2CC[C@H](O)CC2)c(C(N)=O)c1
- IC50 (Endoplasmin [1]): > 100000 nM

SMILES: CCCCC#Cc1ccc(NC2CCN(C(=O)CCN3CCOCC3)CC2)c(C(N)=O)c1
- IC50 (Endoplasmin [1]): 985 nM

SMILES: CCCCC#Cc1ccc(NC2CCN(C(=O)CN(C)C)CC2)c(C(N)=O)c1
- IC50 (Endoplasmin [1]): 1110 nM

SMILES: CCCCC#Cc1ccc(NCCO)c(C(N)=O)c1
- IC50 (Endoplasmin [1]): 6840 nM

SMILES: CCCCC#Cc1ccc(NCC2CCOC2)c(C(N)=O)c1 (stereo not drawn)
- IC50 (Endoplasmin [1]): 947 nM

SMILES: CCCCC#Cc1ccc(NCCOCC)c(C(N)=O)c1
- IC50 (Endoplasmin [1]): 7540 nM

SMILES: CCCCC#Cc1ccc(NCCCOC)c(C(N)=O)c1
- IC50 (Endoplasmin [1]): 2060 nM

SMILES: CCCCC#Cc1ccc(NC2CCNCC2)c(C(N)=O)c1
- IC50 (Endoplasmin [1]): 1610 nM

SMILES: CCCCC#Cc1ccc(NCCNC(C)=O)c(C(N)=O)c1
- IC50 (Endoplasmin [1]): 2020 nM

SMILES: CCCCC#Cc1ccc(NC2CCN(C(=O)CN3CCOCC3)CC2)c(C(N)=O)c1
- IC50 (Endoplasmin [1]): 1490 nM

SMILES: CC(C)C#Cc1ccc(N[C@H]2CC[C@H](O)CC2)c(C(N)=O)c1
- IC50 (Endoplasmin [1]): 914 nM

SMILES: CCCCC#Cc1ccc(NC2CCCN(C(C)=O)C2)c(C(N)=O)c1 (stereo not drawn)
- IC50 (Endoplasmin [1]): 2040 nM

SMILES: CCCCC#Cc1ccc(NCC2CCN(C(=O)C3CC3)CC2)c(C(N)=O)c1
- IC50 (Endoplasmin [1]): 2410 nM

Now from value to compound:

- IC50 (Endoplasmin [1]): 393 nM
SMILES: CCCCC#Cc1ccc(NCC2CCOCC2)c(C(N)=O)c1

- IC50 (Endoplasmin [1]): 13 nM
SMILES: CC(C)c1cc(C(=O)N2Cc3ccc(CN4CCN(C)CC4)cc3C2)c(O)cc1O [ONALESPIB]

- IC50 (Endoplasmin [1]): 210 nM
SMILES: NC(=O)c1cc(C#CC2CCCCC2)ccc1N[C@H]1CC[C@H](O)CC1

- IC50 (Endoplasmin [1]): 528 nM
SMILES: CCCCC#Cc1ccc(NC2CCN(C(=O)C3CC3)CC2)c(C(N)=O)c1

- IC50 (Endoplasmin [1]): 313 nM
SMILES: CC(C)CC#Cc1ccc(N[C@H]2CC[C@H](O)CC2)c(C(N)=O)c1

- IC50 (Endoplasmin [1]): 251 nM
SMILES: NC(=O)c1cc(C#CC2CC2)ccc1N[C@H]1CC[C@H](O)CC1

- IC50 (Endoplasmin [1]): 205 nM
SMILES: NC(=O)c1cc(C#CCCCCl)ccc1N[C@H]1CC[C@H](O)CC1

- IC50 (Endoplasmin [1]): 325 nM
SMILES: CC(C)(C)C#Cc1ccc(N[C@H]2CC[C@H](O)CC2)c(C(N)=O)c1

- IC50 (Endoplasmin [1]): 519 nM
SMILES: CC(C)CCC#Cc1ccc(N[C@H]2CC[C@H](O)CC2)c(C(N)=O)c1

- IC50 (Endoplasmin [1]): 234 nM
SMILES: CCCCC#Cc1ccc(NC2CCOCC2)c(C(N)=O)c1

- IC50 (Endoplasmin [1]): 203 nM
- solubility [11]: 16 µg/mL (≈ 46.9 µM)
- logD [16]: 3.24
- Papp [18]: 94.6 ×10⁻⁶ cm/s
SMILES: CCCCC#Cc1ccc(NC2CCN(C(C)=O)CC2)c(C(N)=O)c1

- IC50 (Endoplasmin [1]): 627 nM
SMILES: CCCCC#Cc1ccc(NC2CCCNC2)c(C(N)=O)c1 (stereo not drawn)

- IC50 (Endoplasmin [1]): 310 nM
SMILES: CCCCC#Cc1ccc(NC2CCOC2)c(C(N)=O)c1 (stereo not drawn)

- IC50 (Endoplasmin [1]): 100 nM
SMILES: NC(=O)c1cc(C#CC2CCCC2)ccc1N[C@H]1CC[C@H](O)CC1

- half-life at 10 µM [8]: 1.04 h
- IC50 (Endoplasmin [1]): 20 nM
- solubility [11]: 3.9 µg/mL (≈ 11.1 µM)
- logD [16]: 4.59
- Papp [18]: 99.2 ×10⁻⁶ cm/s
- half-life at 10 µM [25]: 4.28 h
- CL [27]: 25.5 µL/min/mg
- CL [30]: 13.5 µL/min/mg
SMILES: CC(C)c1ccc(-c2ccc(N[C@H]3CC[C@H](O)CC3)c(C(N)=O)c2)cc1
